Like-named read-outs stand apart in the source and are kept apart here.
How the values were obtained:
[1] = tested on: compound 48/80-induced lethality; test: Protection of rats from compound 48/80-induced lethality; format: in vivo, rats of an inbred Wistar strain; conditions: Rattus norvegicus, 4 h, read-out: Compound 48/80 lethality test in rats ED50, s.c. or p.o. 1 h before compound 48/80 0.5 mg/kg i.v.; protection of 50% of animals, survival after 4 hours
Outline: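 Male inbred Wistar rats (240-260 g), starved overnight, dosed subcutaneously or orally with compound or 0.9% NaCl before compound 48/80 challenge. Survival at 4 hours counted as protection. ED50 in mg/kg is the dose protecting 50% of animals from lethality.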

effects of serotonin = test: Antagonistic activity on the effects of serotonin in the gastric lesion test (lesions induced by compound 48/80); format: in vivo, rats of a Wistar inbred strain; conditions: Rattus norvegicus, po, read-out: gastric lesion test ED50
Description: Antagonistic activity on the effects of serotonin in the gastric lesion test.
The shock, followed by dead, can be avoided if the rats are pretreated with a classical H 1 antagonist.
Male rats of a Wistar inbred strain, weighing 220-250 g, were starved overnight, water being available ad libitum. The test compounds were administered orally as a solution or as a suspension in aqueous medium. A control rat and a "blank" rat received the test compound. One hour later 5-[4-(diphenylmethyl)1-piperazinylmethyl]-1-methyl-1H-benzimidazole-2-methanol was administered subcutaneously to all rats at the dose of 2.5 mg/kg. […] Four hours after the intravenous injection of compound 48/80, the rats were decapitated and the stomachs were removed. Subsequently the stomachs were inspected for distension and contents (blood, fluid, food) and thoroughly rinsed. The macroscopic lesions were scored from 0 to +++, 0 corresponding to complete absence of visible lesions and the highest score corresponding to reddish rough patches covering more than half the glandular area.
The second column of tables 1-4 show for a number of compounds of formula (I) the doses (in mg/kg body weight) at which the distension of the stomach as well as the lesions in the glandular area of the stomach are completely absent in 50% of the test rats (ED50 -value).

[2] = compound 48/80 1 mg/kg i.v., distension and lesions of stomach completely absent in 50% of rats

SMILES	ED50 [1]	ED50 (effects of serotonin; [2])	ED50 (effects of serotonin)
Fc1ccc(Cn2c(CC3CCN(Cc4ccccc4)CC3)nc3ccccc32)cc1 [Compound 34, 1-[(4-fluorophenyl)methyl]-2-[[1-(phenylmethyl)-4-piperidinyl]methyl]-1H-benzimidazole]	0.04 mg/kg	0.63 mg/kg	
Cc1nc2scc(C)n2c(=O)c1CCN1CCC(Cc2nc3ccccc3n2Cc2ccc(F)cc2)CC1 [Compound 219]	0.08 mg/kg	0.63 mg/kg	
O=c1[nH]c2ccccc2c(=O)n1CCN1CCC(Cc2nc3ccccc3n2Cc2cccs2)CC1 [Compound 186]	0.04 mg/kg	0.31 mg/kg	
COc1ncccc1C(=O)NCCN1CCC(Cc2nc3ccccc3n2Cc2ccc(F)cc2)CC1 [Compound 438, N-[2-[4-[[1-[(4-fluorophenyl)methyl]-1H-benzimidazol-2-yl]methyl]-1-piperidinyl]ethyl]-2-methoxy-3-pyridinecarboxamide]	0.08 mg/kg	0.16 mg/kg	
O=c1cc[nH]c(=O)n1CCN1CCC(Cc2nc3ccccc3n2Cc2ccc(F)cc2)CC1 [Compound 164]	0.02 mg/kg	0.02 mg/kg	
Oc1nc2cncnc2n1CCN1CCC(Cc2nc3ccccc3n2Cc2ccc(F)cc2)CC1 [Compound 502, 9-[2-[4-[[1-[(4-fluorophenyl)methyl]-1H-benzimidazol-2-yl]methyl]-1-piperidinyl]ethyl]-9H-purin-8-ol]	0.08 mg/kg	0.16 mg/kg	
CC(=O)N(CCN1CCC(Cc2nc3ccccc3n2Cc2ccc(F)cc2)CC1)c1ncccn1 [Compound 510, N-[2-[4-[[1-[(4-fluorophenyl)methyl]-1H-benzimidazol-2-yl]methyl]-1-piperidinyl]ethyl]-N-(2-pyrimidinyl)acetamide]	0.02 mg/kg	0.16 mg/kg	
c1cnc(NCCN2CCC(Cc3nc4ccccc4n3Cc3ccco3)CC2)nc1 [Compound 334]	0.005 mg/kg	0.31 mg/kg	
Fc1ccc(Cn2c(CC3CCN(CCN4CCOCC4)CC3)nc3cccnc32)cc1 [Compound 124]	0.04 mg/kg	0.31 mg/kg	
CC(C)N1CCC(Cc2nc3ccccc3n2Cc2ccccc2)CC1 [Compound 94]	0.08 mg/kg	0.63 mg/kg	
CC(C)NC(=O)CN1CCC(Cc2nc3cccnc3n2Cc2ccc(F)cc2)CC1 [Compound 128]	0.16 mg/kg	0.63 mg/kg	
O=C(NCCN1CCC(Cc2nc3ccccc3n2Cc2ccc(F)cc2)CC1)c1cccs1 [Compound 443, N-[2-[4-[[1-[(4-fluorophenyl)methyl]-1H-benzimidazol-2-yl]methyl]-1-piperidinyl]ethyl]-2-thiophenecarboxamide]	0.02 mg/kg	0.16 mg/kg	
Cc1nc2ccccn2c(=O)c1CCN1CCC(Cc2nc3ccccc3n2Cc2ccco2)CC1 [Compound 218]	0.04 mg/kg		0.04 mg/kg
Fc1ccc(Cn2c(CC3CCN(Cc4cn5ccccc5n4)CC3)nc3ccccc32)cc1 [Compound 184]	0.02 mg/kg	0.63 mg/kg	
Cc1nc2n(c(=O)c1CCN1CCC(Cc3nc4ccccc4n3Cc3cccs3)CC1)CCCC2 [Compound 263]	0.04 mg/kg		0.04 mg/kg
Cc1nc2ccccn2c(=O)c1CCN1CCC(Cc2nc3ccccc3n2Cc2ccc(F)cc2)CC1 [Compound 214]	0.08 mg/kg		0.04 mg/kg
Fc1ccc(Cn2c(CC3CCN(CCc4ccccn4)CC3)nc3cccnc32)cc1 [Compound 101]	0.02 mg/kg	0.31 mg/kg	
Nc1ccccc1C(=O)NCCN1CCC(Cc2nc3ccccc3n2Cc2cccs2)CC1 [Compound 478, 2-amino-N-[2-[4-[[1-(2-thienylmethyl)-1H-benzimidazol-2-yl]methyl]-1-piperidinyl]ethyl]benzamide]	0.02 mg/kg		0.04 mg/kg
Fc1ccc(Cn2c(CC3CCNCC3)nc3ccccc32)cc1 [Compound 47, 1-[(4-fluorophenyl)methyl]-2-(4-piperidinylmethyl)-1H-benzimidazole]	0.08 mg/kg	0.63 mg/kg	
c1coc(Cn2c(CC3CCN(CCNc4nccs4)CC3)nc3ccccc32)c1 [Compound 335]	0.02 mg/kg	0.16 mg/kg	

SMILES	ED50 [1]	ED50 (effects of serotonin; [2])	ED50 (effects of serotonin)
Fc1ccc(Cn2c(CC3CCN(CCNc4cc(Cl)ncn4)CC3)nc3ccccc32)cc1 [Compound 384]	0.08 mg/kg	0.63 mg/kg	
O=C(NCCN1CCC(Cc2nc3ccccc3n2Cc2ccc(F)cc2)CC1)C(=O)c1cccs1 [Compound 439, N[2-[;b 4-[[1-[(4-fluorophenyl)methyl]-1H-benzimidazol-2-yl]methyl]-1-piperidinyl]ethyl]-α-oxo-2-thiopheneacetamide]	0.16 mg/kg	0.31 mg/kg	
Fc1ccc(Cn2c(CC3CCN(CCn4c(=S)[nH]c5ccccc54)CC3)nc3ccccc32)cc1 [Compound 493, 1-[2-[4-[[1-[(4-fluorophenyl)methyl]-1H-benzimidazol-2-yl]methyl]-1-piperidinyl]ethyl]-1,3-dihydro-2H-benzimidazole-2-thione]	0.08 mg/kg		0.04 mg/kg
O=c1c2ccccc2[nH]c(=S)n1CCN1CCC(Cc2nc3ccccc3n2Cc2ccco2)CC1 [Compound 461, 3-[2-[4-[[1-(2-furanylmethyl)-1H-benzimidazol-2-yl]methyl]-1-piperidinyl]ethyl]-2,3-dihydro-2-thioxo-4(1H)-quinazolinone]	0.08 mg/kg		0.08 mg/kg
O=C1OCCN1CCN1CCC(Cc2nc3ccccc3n2Cc2ccc(F)cc2)CC1 [Compound 385, 3-[2-[4-[[1-[(4-fluorophenyl)methyl]-1H-benzimidazol-2-yl]methyl]-1-piperidinyl]ethyl]2-oxazolidinone]	0.01 mg/kg		0.08 mg/kg
Cc1nc2ccccn2c(=O)c1CCN1CCC(Cc2nc3cccnc3n2Cc2ccc(F)cc2)CC1 [Compound 177]	0.04 mg/kg	0.31 mg/kg	
CN1CCC(Cc2nc3ccccc3n2Cc2ccc(F)cc2)CC1 [Compound 82]	0.005 mg/kg	0.63 mg/kg	
Nc1ccccc1C(=O)NCCN1CCC(Cc2nc3ccncc3n2Cc2ccc(F)cc2)CC1 [Compound 477, 2-amino-N-[2-[4-[[3-[(4-fluorophenyl)methyl]-3H-imidazo[4,5-c]pyridin-2-yl]-methyl]-1-piperidinyl]-ethyl]benzamide]	0.02 mg/kg	0.63 mg/kg	
O=c1cc[nH]c(NCCN2CCC(Cc3nc4ccccc4n3Cc3ccc(F)cc3)CC2)n1 [Compound 331, 2-[[2-[4-[[1-[(4-fluorophenyl)methyl]-1H-benzimidazol-2-yl]methyl]-1-piperidinyl]ethyl]amino]-4(1H)-pyrimidinone]	0.04 mg/kg	0.02 mg/kg	
Fc1ccc(Cn2c(CC3CCN(CCc4cccs4)CC3)nc3ccccc32)cc1 [Compound 118, 1-[(4-fluorophenyl)methyl]-2-[[1-[2-(2-thienyl)ethyl]-4-piperidinyl]-methyl]-1H-benzimidazole]	0.04 mg/kg	0.63 mg/kg	
O=C(c1ccccc1)N(CCN1CCC(Cc2nc3ccccc3n2Cc2ccc(F)cc2)CC1)c1ncccn1 [Compound 508, N-[2-[4-[[1-[(4-fluorophenyl)methyl]-1H-benzimidazol-2-yl]methyl]-1-piperidinyl]ethyl]-N-(2-pyrimidinyl)benzamide]	0.08 mg/kg	0.16 mg/kg	
Nc1nccnc1C(=O)NCCN1CCC(Cc2nc3ccccc3n2Cc2ccc(F)cc2)CC1 [Compound 436, 3-amino-N[2-[4-[[1-[(4-fluorophenyl)methyl]-1H-benzimidazol-2-yl]methyl]-1-piperidinyl]ethyl]-2-pyrazinecarboxamide]	0.01 mg/kg	0.63 mg/kg	
Fc1ccc(Cn2c(CC3CCN(CCOc4ncccn4)CC3)nc3ccccc32)cc1 [Compound 391, 1-[(4-fluorophenyl)methyl]-2-[[1-[2-(2-pyrimidinyloxy)ethyl]-4-piperidinyl]methyl]-1H-benzimidazole]	0.02 mg/kg	0.02 mg/kg	
O=c1[nH]c2ccccc2c(=O)n1CCN1CCC(Cc2nc3ccccc3n2Cc2cscn2)CC1 [Compound 187]	0.04 mg/kg	0.31 mg/kg	
COc1ccc(CCN2CCC(Cc3nc4ccccc4n3Cc3ccoc3)CC2)cc1 [Compound 260]	0.01 mg/kg	0.63 mg/kg	
COc1ccc(CCN2CCC(Cc3nc4cccnc4n3Cc3ccco3)CC2)cc1 [Compound 189]	0.02 mg/kg	0.63 mg/kg	
COc1ccc(CCN2CCC(Cc3nc4ccc(O)cc4n3Cc3ccc(F)cc3)CC2)cc1 [Compound 276]	0.04 mg/kg	0.31 mg/kg	
Cn1cnc([N+](=O)[O-])c1N1CCC(N2CCC(Cc3nc4ccccc4n3Cc3ccc(F)cc3)CC2)CC1 [Compound 380, 4-[[1-[(4-fluorophenyl)methyl]-1H-benzimidazol-2-yl]methyl]-1'-(1-methyl-4-nitro-1H-imidazol-5-yl)-[1,4'-bipiperidine]]	0.31 mg/kg	0.63 mg/kg	
O=[N+]([O-])c1cc[n+]([O-])cc1NCCN1CCC(Cc2nc3ccccc3n2Cc2ccc(F)cc2)CC1 [Compound 379, N-[2-[4-[[1-[(4-fluorophenyl)methyl]-1H-benzimidazol-2-yl]methyl]-1-piperidinyl]ethyl]-4-nitro-3-pyridinamine, 1-oxide]	0.08 mg/kg	0.31 mg/kg	
